Patent publication US10927123B2, “Modulators of the beta-3 adrenergic receptor useful for the treatment or prevention of disorders related thereto” (Arena Pharmaceuticals, Inc., priority 2016, dated 2021)

Target: Beta-3 Adrenergic Receptor (Homo sapiens (Human), UniProt P13945)
Experiment: HTRF cAMP antagonist assay (IC50 determination)
Type: cell-based
Details: CHO-K1 cells stably expressing recombinant receptor; antagonism of isoproterenol at EC90; cAMP readout
Method in brief: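 In this functional readout, recombinant CHO-K1 cells received compound, then isoproterenol at its EC90. After 1 h at room temperature, cAMP levels were determined by HTRF using an on-plate standard curve, and IC50 values were fitted.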

Sequence of Beta-3 Adrenergic Receptor (P13945 whole entry, species assumed): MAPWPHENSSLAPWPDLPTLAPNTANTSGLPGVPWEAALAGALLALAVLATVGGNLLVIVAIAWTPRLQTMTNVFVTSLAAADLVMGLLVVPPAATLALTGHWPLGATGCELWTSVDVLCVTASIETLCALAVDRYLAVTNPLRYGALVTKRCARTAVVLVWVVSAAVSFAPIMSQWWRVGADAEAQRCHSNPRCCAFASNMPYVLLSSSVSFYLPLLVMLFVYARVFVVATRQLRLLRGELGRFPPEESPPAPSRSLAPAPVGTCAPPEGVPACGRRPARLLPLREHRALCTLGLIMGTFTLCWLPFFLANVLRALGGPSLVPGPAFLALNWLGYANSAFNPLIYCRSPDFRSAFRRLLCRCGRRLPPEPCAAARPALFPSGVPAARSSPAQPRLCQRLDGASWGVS

Row | Compound | IC50
1 | CC(C)S(=O)(=O)c1cccc(OC[C@@H](O)CN[C@H]2COC3(CCN(S(=O)(=O)c4cnc5c(c4)N(C)CCO5)CC3)C2)c1 [Compound 153, (S)-1-(3-(isopropylsulfonyl)phenoxy)-3-((R)-8-(1-methyl-2,3-dihydro-1H-pyrido[2,3-b][1,4]oxazin-7-ylsulfonyl)-1-oxa-8-azaspiro[4.5]decan-3-ylamino)propan-2-ol] | 18.8 nM
2 | CN1CCOc2ncc(S(=O)(=O)N3CCC4(CC3)C[C@@H](NC[C@H](O)COc3cccc(S(=O)(=O)C5(CO)CC5)c3)CO4)cc21 [Compound 155, (S)-1-(3-(1-(hydroxymethyl)cyclopropylsulfonyl)phenoxy)-3-((R)-8-(1-methyl-2,3-dihydro-1H-pyrido[2,3-b][1,4]oxazin-7-ylsulfonyl)-1-oxa-8-azaspiro[4.5]decan-3-ylamino)propan-2-ol] | 48.2 nM
3 | CN1CCOc2ncc(S(=O)(=O)N3CCC4(CC3)C[C@@H](NC[C@H](O)COc3cccc(S(=O)(=O)C(F)(F)CO)c3)CO4)cc21 [Compound 156, (S)-1-(3-(1,1-difluoro-2-hydroxyethylsulfonyl)phenoxy)-3-((R)-8-(1-methyl-2,3-dihydro-1H-pyrido[2,3-b][1,4]oxazin-7-ylsulfonyl)-1-oxa-8-azaspiro[4.5]decan-3-ylamino)propan-2-ol] | 24.8 nM
4 | NCc1ccc(-c2cccc(S(=O)(=O)N3CCC4(CC3)C[C@@H](NC[C@H](O)COc3cccc(S(=O)(=O)C5(CO)CC5)c3)CO4)c2)cc1 [Compound 157, (S)-1-((R)-8-(4′-(aminomethyl)biphenyl-3-ylsulfonyl)-1-oxa-8-azaspiro[4.5]decan-3-ylamino)-3-(3-(1-(hydroxymethyl)cyclopropylsulfonyl)phenoxy)propan-2-ol] | 25.7 nM
5 | CCOc1ccc(-c2ccc(CN)cc2)cc1S(=O)(=O)N1CCC2(CC1)C[C@@H](NC[C@H](O)COc1cccc(S(=O)(=O)C3(CO)CC3)c1)CO2 [Compound 158, (S)-1-((R)-8-(4′-(aminomethyl)-4-ethoxybiphenyl-3-ylsulfonyl)-1-oxa-8-azaspiro[4.5]decan-3-ylamino)-3-(3-(1-(hydroxymethyl)cyclopropylsulfonyl)phenoxy)propan-2-ol] | 27.3 nM
6 | CN1CCOc2ncc(S(=O)(=O)N3CCC4(CC3)C[C@@H](NC[C@H](O)COc3cccc(S(=O)(=O)CC(N)=O)c3)CO4)cc21 [Compound 159, 2-(3-((S)-2-hydroxy-3-((R)-8-(1-methyl-2,3-dihydro-1H-pyrido[2,3-b][1,4]oxazin-7-ylsulfonyl)-1-oxa-8-azaspiro[4.5]decan-3-ylamino)propoxy)phenylsulfonyl)acetamide] | 178 nM
7 | CCOc1ccc(-c2ccc(CN)cc2)cc1S(=O)(=O)N1CCC2(CC1)C[C@H](NC[C@H](O)COc1cccc(S(=O)(=O)C3CC3)c1)CO2 [Compound 160, (S)-1-((S)-8-(4′-(aminomethyl)-4-ethoxybiphenyl-3-ylsulfonyl)-1-oxa-8-azaspiro[4.5]decan-3-ylamino)-3-(3-(cyclopropylsulfonyl)phenoxy)propan-2-ol] | 11.6 nM
8 | CCOc1ccc(-c2ccc(CN)cc2)cc1S(=O)(=O)N1CCC2(CC1)C[C@@H](NC[C@H](O)COc1cccc(S(=O)(=O)C(F)(F)CO)c1)CO2 [Compound 161, (S)-1-((R)-8-(4′-(aminomethyl)-4-ethoxybiphenyl-3-ylsulfonyl)-1-oxa-8-azaspiro[4.5]decan-3-ylamino)-3-(3-(1,1-difluoro-2-hydroxyethylsulfonyl)phenoxy)propan-2-ol] | 21.1 nM
9 | NCc1ccc(-c2ccc(F)c(S(=O)(=O)N3CCC4(CC3)C[C@H](NC[C@H](O)COc3cccc(S(=O)(=O)C5(CO)CC5)c3)CO4)c2)cc1 [Compound 162, (S)-1-((S)-8-(4′-(aminomethyl)-4-fluorobiphenyl-3-ylsulfonyl)-1-oxa-8-azaspiro[4.5]decan-3-ylamino)-3-(3-(1-(hydroxymethyl)cyclopropylsulfonyl)phenoxy)propan-2-ol] | 29.5 nM
10 | NCc1ccc(-c2cccc(S(=O)(=O)N3CCC4(CC3)C[C@H](NC[C@H](O)COc3cccc(S(=O)(=O)C5(CO)CC5)c3)CO4)c2)cc1 [Compound 164, (S)-1-((S)-8-(4′-(aminomethyl)biphenyl-3-ylsulfonyl)-1-oxa-8-azaspiro[4.5]decan-3-ylamino)-3-(3-(1-(hydroxymethyl)cyclopropylsulfonyl)phenoxy)propan-2-ol] | 27.7 nM
11 | CCOc1ccc(-c2ccc(CNC(C)C)cc2)cc1S(=O)(=O)N1CCC2(CC1)C[C@@H](NC[C@H](O)COc1cccc(S(=O)(=O)C3(CO)CC3)c1)CO2 [Compound 165, (S)-1-((R)-8-(4-ethoxy-4′-((isopropylamino)methyl)biphenyl-3-ylsulfonyl)-1-oxa-8-azaspiro[4.5]decan-3-ylamino)-3-(3-(1-(hydroxymethyl)cyclopropylsulfonyl)phenoxy)propan-2-ol] | 64.4 nM
12 | CC(C)Oc1ccc(-c2ccc(CN)cc2)cc1S(=O)(=O)N1CCC2(CC1)C[C@H](NC[C@H](O)COc1cccc(S(=O)(=O)C3CC3)c1)CO2 [Compound 166, (S)-1-((S)-8-(4′-(aminomethyl)-4-isopropoxybiphenyl-3-ylsulfonyl)-1-oxa-8-azaspiro[4.5]decan-3-ylamino)-3-(3-(cyclopropylsulfonyl)phenoxy)propan-2-ol] | 51.2 nM
13 | CCOc1ccc(-c2ccc(CN)cc2)cc1S(=O)(=O)N1CCC2(CC1)C[C@H](NC[C@H](O)COc1cccc(S(=O)(=O)C(F)(F)CO)c1)CO2 [Compound 168, (S)-1-((S)-8-(4′-(aminomethyl)-4-ethoxybiphenyl-3-ylsulfonyl)-1-oxa-8-azaspiro[4.5]decan-3-ylamino)-3-(3-(1,1-difluoro-2-hydroxyethylsulfonyl)phenoxy)propan-2-ol] | 15.4 nM
14 | NCc1ccc(-c2ccc(F)c(S(=O)(=O)N3CCC4(CC3)C[C@@H](NC[C@H](O)COc3cccc(S(=O)(=O)C5(CO)CC5)c3)CO4)c2)cc1 [Compound 169, (S)-1-((R)-8-(4′-(aminomethyl)-4-fluorobiphenyl-3-ylsulfonyl)-1-oxa-8-azaspiro[4.5]decan-3-ylamino)-3-(3-(1-(hydroxymethyl)cyclopropylsulfonyl)phenoxy)propan-2-ol] | 17.5 nM
15 | Cc1ccc(-c2cccc(S(=O)(=O)N3CCC4(CC3)C[C@@H](NC[C@H](O)COc3cccc(S(=O)(=O)C5(CO)CC5)c3)CO4)c2)cc1 [Compound 170, (S)-1-(3-(1-(hydroxymethyl)cyclopropylsulfonyl)phenoxy)-3-((R)-8-(4′-methylbiphenyl-3-ylsulfonyl)-1-oxa-8-azaspiro[4.5]decan-3-ylamino)propan-2-ol] | 416 nM
16 | CC(C)Oc1ccc(-c2ccc(CN)cc2)cc1S(=O)(=O)N1CCC2(CC1)C[C@@H](NC[C@H](O)COc1cccc(S(=O)(=O)C3CC3)c1)CO2 [Compound 171, (S)-1-((R)-8-(4′-(aminomethyl)-4-isopropoxybiphenyl-3-ylsulfonyl)-1-oxa-8-azaspiro[4.5]decan-3-ylamino)-3-(3-(cyclopropylsulfonyl)phenoxy)propan-2-ol] | 25 nM
17 | CCOc1ccc(-c2ccc(C3(N)CC3)cc2)cc1S(=O)(=O)N1CCC2(CC1)C[C@@H](NC[C@H](O)COc1cccc(S(=O)(=O)C3(CO)CC3)c1)CO2 [Compound 172, (S)-1-((R)-8-(4′-(1-aminocyclopropyl)-4-ethoxybiphenyl-3-ylsulfonyl)-1-oxa-8-azaspiro[4.5]decan-3-ylamino)-3-(3-(1-(hydroxymethyl)cyclopropylsulfonyl)phenoxy)propan-2-ol] | 50.3 nM
